pIC50: −log10 of the molar value. Like-named read-outs stand apart in the source and are kept apart here.
What was measured:
[1] = tested on: HL-60 leukemia cells; experiment: CellTiter-Blue cell viability assay on HL-60; format: cell-based; settings: Homo sapiens, HL-60 cells, 48 h
Protocol: (§1) HL-60 were purchased from CLS Cell Line Service GmbH (Eppelheim, Germany) and cultured in Roswell Park Memorial Institute-1640 medium (RPMI-1640; Thermo Fisher Scientific, Inc; Waltham, Mass., USA) supplemented with 10% fetal bovine serum (FBS; Thermo Fisher Scientific) and ciprofloxacin (10 μg/mL; Cipla Limited; Mumbai, India), at 37° C. with 5% CO2 in a humidified incubator.
The CellTiter®-Blue Cell Viability assay was acquired from Promega Corporation (Madison, Wis., USA). Cell viability assay was performed as follows. The cells (10^4/well) were incubated with a concentration gradient of KIM-161C and KIM-241C ranging from 0.01 to 100 in 96-well plates for 48 h at 37° C. Subsequently, 20 μL CellTiter®-Blue Cell Viability reagent was added to each well and incubated for an additional 2 h for the development of fluorescence. The fluorescence emission was measured at 590 nm using the SpectraMax® i3× Multi-Mode microplate reader (Molecular Devices, LLC; San Jose, Calif., USA.) and plotted against drug concentrations to determine the mean inhibitory concentration of KIM-161C and KIM-241C producing 50% decrease in cell viability (IC50).

[2] = tested on: MCF-7 (breast) cancer cells; experiment: SRB cytotoxicity assay against MCF7; format: cell-based, human; settings: Homo sapiens, 72 h treatment
Protocol: (§2) MCF-7 (breast) and PC3 (prostate) cancer cells were each grown in RPMI-1640 medium supplemented with 10% heat inactivated FBS, 50 units/mL of penicillin, and […] of streptomycin. The cultures were maintained at 37° C. in a humidified atmosphere containing 5% CO2. The cells were maintained as “monolayer culture” by serial sub-culturing.
(§3) Cytotoxicity was determined using SRB method as previously described by Skehan et al. [Skehan P.; Storeng R.; Scudiero D.; Monks A.; McMahon J.; al., V. D. e., New colorimetric cytotoxicity assay for anticancer drug screening. […] Exponentially growing cells were collected using 0.25% Trypsin-EDTA and seeded in 96-well plates at 1000-2000 cells/well in RPMI-1640 supplemented medium. After 24 h, cells were incubated for 72 h with various concentrations of the tested compounds. Following 72 h treatment, the cells would be fixed with 10% trichloroacetic acid for 1 h at 4° C. Wells were stained for 10 min at room temperature with 0.4% SRB dissolved in 1% acetic acid. The plates were air dried for 24 h and the dye was solubilized with Tris-HCl for 5 min on a shaker at 1600 rpm. The optical density (OD) of each well was measured spectrophotometrically at 564 nm with an ELISA microplate reader (ChroMate-4300, FL, USA). The IC50 values were calculated according to the equation for Boltzman sigmoidal concentration—response curve using the nonlinear regression fitting models (Graph Pad, Prism Version 5).

[3] = tested on: PC3 (prostate) cancer cells; experiment: SRB cytotoxicity assay against PC3; format: cell-based, human; settings: Homo sapiens, 72 h treatment
Protocol: as §2, §3

[4] = tested on: HL-60 leukemia cells; experiment: Cell cycle analysis of Hoechst 33342 stained HL-60 cells by flow cytometry; format: cell-based, human; settings: 48 h
Protocol: as §1
The cells (3.5×10^5) were incubated with two different concentrations of KIM-161C at 37° C. for 48 h. Subsequently, the cells were collected and washed twice with ice-cold PBS (1×). The washed cells were fixed on ice for 20 min using a fixation buffer containing paraformaldehyde. Hoechst 33342 (10 μg/mL; Thermo Fisher Scientific, Inc.) was used for staining. The cells were then incubated in the dark for 30 min on ice. A minimum total of 20,000 events were acquired using a BD FACSAria III flow cytometer. Flowlogic version 7.2.1 software (Inivai Technologies, Victoria, Australia) was used to obtain the percentages of cells in the G1, S, and G2/M phases in the singlet-gated population.

[5] = tested on: HL-60 leukemia cells; experiment: Apoptosis detection by caspase 3 activity in HL-60 cells; format: cell-based, human
Protocol: as §1
The caspase family of cysteine proteases are important regulators in the apoptosis. Caspase 3 belongs to the effector (caspase 3, 6 and 7) class of proteases and it is a key protease that is activated during early stages of apoptosis. […] The activated caspase 3 is a marker for cell apoptosis that proteolytically cleaves and activates other caspases and intracellular targets [Patel, T.; Gores, G. J.; Kaufmann, S. H., The role of proteases during apoptosis. FASEB journal: official publication of the Federation of American Societies for Experimental Biology 1996, 10 (5), 587-97].
FITC conjugated active caspase-3 antibody (BD biosciences, USA) was used to detect the active form of caspase 3 in the cells undergoing apoptosis. […] The collected cells were washed twice in cold 1×PBS and then re-suspended in a 0.5 mL BD Cytofix/Cytoperm solution followed by 20 min incubation on ice. After incubation, cells were washed twice in a BD Perm/Wash buffer (1×) and then labelled with 5 μL of FITC rabbit anti-caspase 3 antibodies. The labelled cells were washed again with wash buffer and re-suspended in a 0.5 mL buffer and analyzed by acquiring a minimum of 5000 events on the FACS Aria III cell analyzer and sorter.

pIC50 ([1]; read-out: IC50 value, HL-60 cell viability (could not be obtained even at this concentration)) | melting point | pIC50 ([1]; read-out: IC50 value, HL-60 cell viability) | SMILES | pIC50 [2] | pIC50 [3] | cells in the G1 phase ([4]; 362.5 nM) | increase in the cells in G2/M stage as compared to the control ([4]; 725 nM) | increase in the cells undergoing apoptosis as compared to the basal apoptosis ([5]; 362.5 nM, 24 h) | increase in the cells undergoing apoptosis as compared to the basal apoptosis ([5]; 362.5 nM, 48 h) | increase in the cells undergoing apoptosis as compared to the basal apoptosis ([5]; 725 nM, 24 h) | increase in the cells undergoing apoptosis as compared to the basal apoptosis ([5]; 725 nM, 48 h)
< 4.70 | 199 to 200 °C |  | O=C(Cc1ccc(N2C(=O)/C(=C/c3ccco3)N=C2c2ccccc2)cc1)NCc1ccccc1 [KIM-241C, (Z)—N-benzyl-2-(4-(4-(furan-2-ylmethylene)-5-oxo-2-phenyl-4,5-dihydro-1H-imidazol-1-yl)phenyl)acetamide] | 6.84 | 6.61 |  |  |  |  |  | 
 |  | 6.58 | COc1ccc(/C=C2\N=C(C)N(c3ccc(CC(=O)NCc4ccccc4)cc3)C2=O)cc1 [KIM-161C, (Z)—N-benzyl-2-(4-(4-(4-methoxybenzylidene)-2-methyl-5-oxo-4,5-dihydro-1H-imidazol-1-yl)phenyl)acetamide] | 5.46 |  | increase | 3 fold | more than 2 fold | more than 2 fold | more than 9.5 fold | > 8.45 fold
